Assay results published in patent US10519143B2, “Substituted-indole-compounds as estrogen receptor down-regulators” (LUOXIN PHARMACEUTICAL (SHANGHAI) CO., LTD, priority 2016, dated 2019).
Like-named read-outs stand apart in the source and are kept apart here.

Key:
[1] = tested on: MCF-7 breast cancer cell xenograft; assay: antitumor activity on MCF-7 breast cancer cell xenograft model; assay type: in vivo, BALB/c nude mice; details: oral, once a day, ARN-810 10/30 mg/kg, I-1 30 mg/kg
Procedure: Mice were inoculated subcutaneously with 0.36 mg estrogen sustained release tablet (60 days release) on the left shoulder three days before inoculation. When cells were in the logarithmic growth phase, cells were harvested, counted and adjusted to 10×10^7 cells/mL, then an equal volume of Matrigel was added, mixing for inoculation. 0.2 mL MCF-7 tumor cell suspension (10×10^6) was inoculated subcutaneously into the right shoulder of each mouse. On the 7th day after tumor cell inoculation, mice were grouped and administrated once a day, with an average tumor volume of 169 mm^3 and a body weight of 23.33 g. Tumor volume and body weight were measured twice a week after grouping, and the tumor growth rate (T/C) and tumor growth inhibition rate (TGI) were calculated based on the last measuring data on the 17th day after grouping.

[2] = drug distribution in tissues (plasma, tumor, brain); assay type: in vivo, mice; details: dose 67.3 μmol/kg, 20th day after grouping
Procedure: On the 20th day after grouping, the sample was collected from plasma, tumor, breast and brain of the mice at four time points (2-3 mice each time point) which was respectively 0.5 hour, 1.5 hours, 6 hours and 24 hours after administration. The blood (0.5 mL) was collected using a 1.5 mL EDTA-K2 anticoagulation tube, immediately centrifuged at 4000 rpm, 4° C. for 10 minutes to prepare plasma, the plasma sample was stored at −80° C. for determination of drug concentration. The tumor was collected using a 2 mL cryotube, and the brain was collected using a 5 mL cryotube, the samples were immediately put into liquid nitrogen for quike freeze. All samples were stored at −80° C. for determination of drug concentration after sampling. The result was converted based on corresponding AUC to compare the drug distribution.

[3] = in vivo PK properties (cassette PK); details: plasma; for AUC(0-t): read-out: AUC0-last (nm/hr)
MCF-7 cells = assay: MCF-7 cell proliferation inhibition assay; assay type: cell-based; details: Homo sapiens, MCF7, 144 h
Procedure: Experimental Reagent: RPMI 1640 medium, fetal bovine serum, Promega CellTiter-Glo reagent. The cell line MCF-7 was purchased from The European Collection of Authenticated Cell Cultures (ECACC). Envision Multilabel Reader (PerkinElmer). Experimental Method: […] The cell plate was placed in a carbon dioxide incubator overnight. […] The cell plate was incubated in a carbon dioxide incubator for 6 days. Promega CellTiter-Glo reagent was added to the cell plate at 25 μL per well, cells were incubated for 10 minutes at room temperature to stabilize the luminescence signal, which was measured using PerkinElmer Envision Multilabel Reader. Data Analysis: […] (Model 205 in XLFIT5, iDBS)

[4] = prior art statement; cited from earlier work
breast cancer = details: intramuscular injection, prior art statement; cited from earlier work
[5] = MCF-7 cells, 6 days incubation, CellTiter-Glo, read-out: anti-proliferation in MCF-7 cells
[6] = read-out: anti-proliferation in MCF-7 cells (nM)

| Structure (SMILES) | IC50 (MCF-7 cells; [5]) | other results |
| --- | --- | --- |
| CC/C(=C(/c1ccc(/C=C/C(=O)O)cc1)c1ccc2[nH]ncc2c1)c1ccc(F)cc1Cl [ARN-810, reference compound] | – | T/C (%) ([1]; 17th day after grouping): 43.4%; TGI (%) ([1]; 17th day after grouping): 75.7%; tumor volumn (mm^3) 17th day after grouping ([1]; Mean ± SEM): 290 ± 38 mm^3; AUC0-last (nmol · h/kg) brain ([2]; brain): 3490 nmol·h/kg; AUC0-last (nmol · h/kg) plasma ([2]; plasma): 33545 nmol·h/kg; AUC0-last (nmol · h/kg) tumor ([2]; tumor): 11368 nmol·h/kg; C0 ([3]; iv, 1 mg/kg, i.V. 1 mpk): 1640 nM; clearance ([3]; iv, 1 mg/kg, i.V. 1 mpk): 18.9 mL/min/kg; half-life ([3]; iv, 1 mg/kg, i.V. 1 mpk): 1.35 h; AUC(0-t) ([3]; iv, 1 mg/kg, i.V. 1 mpk): 1.99 µM·h; Vd ([3]; iv, 1 mg/kg, i.V. 1 mpk, read-out: Vdss): 1.93 L/kg; Cmax ([3]; po, 2.5 mg/kg, P.O 2.5 mpk): 924 nM; Tmax ([3]; po, 2.5 mg/kg, P.O 2.5 mpk): 0.417 h; bioavailability ([3]; po, 2.5 mg/kg, P.O 2.5 mpk): 66%; half-life ([3]; po, 2.5 mg/kg, P.O 2.5 mpk): 3.49 h; AUC(0-t) ([3]; po, 2.5 mg/kg, P.O 2.5 mpk): 3.28 µM·h |
| CC/C(=C(/c1ccc(/C=C/C(=O)O)cc1)c1cc2ccccc2[nH]1)c1ccc(C#N)cc1Cl [Compound I-34] | 49 nM | – |
| CC/C(=C(/c1ccc(/C=C/C(=O)O)cc1)c1[nH]c2ccccc2c1Cl)c1cc(Cl)sc1Cl [Compound I-35] | 20 nM | – |
| CC/C(=C(/c1ccc(/C=C/C(=O)O)cc1)c1[nH]c2ccccc2c1C#N)c1cc(Cl)sc1Cl [Compound I-36] | 6.84 nM | – |
| CC/C(=C(/c1ccc(/C=C/C(=O)O)cc1)c1cc2ccccc2[nH]1)c1ccc(Cl)cc1Cl [Compound I-37] | 11 nM | – |
| CC/C(=C(/c1ccc(/C=C/C(=O)O)cc1)c1[nH]c2ccccc2c1F)c1ccc(F)cc1Cl [Compound I-40] | 2.31 nM | – |
| CC/C(=C(/c1ccc(/C=C/C(=O)O)cc1)c1cc2ccccc2[nH]1)c1ccc(OC)cc1Cl [Compound I-41] | 3.91 nM | – |
| CC/C(=C(/c1ccc(/C=C/C(=O)O)cc1)c1[nH]c2ccccc2c1C#N)c1ccc(OC)cc1Cl [Compound I-42] | 0.77 nM | – |
| CC/C(=C(/c1ccc(/C=C/C(=O)O)cc1)c1[nH]c2ccccc2c1Cl)c1ccc(OC)cc1C#N [Compound I-43] | 1.56 nM | – |
| CC/C(=C(/c1ccc(/C=C/C(=O)O)cc1)c1[nH]c2ccccc2c1Cl)c1ccc(Cl)cc1C(F)(F)F [Compound I-44] | 5.84 nM | – |
| CC/C(=C(/c1ccc(/C=C/C(=O)O)cc1)c1cc2ccccc2[nH]1)c1ccc(F)cc1F [Compound I-45] | – | IC50 (MCF-7 cells; [6]): 103 nM |
| CC/C(=C(/c1ccc(/C=C/C(=O)O)cc1)c1cc2cnccc2[nH]1)c1ccc(F)cc1Cl [Compound I-46] | 393 nM | – |
| CC/C(=C(/c1ccc(/C=C/C(N)=O)cc1)c1cc2ccccc2[nH]1)c1ccc(Cl)cc1C(F)(F)F [Compound I-47] | 4.27 nM | – |
| CC/C(=C(/c1ccc(/C=C/C(=O)NS(C)(=O)=O)cc1)c1cc2ccccc2[nH]1)c1ccc(Cl)cc1C(F)(F)F [Compound I-48] | 4.88 nM | – |
| CC/C(=C(/c1ccc(/C=C/C(=O)O)cc1)c1cc2ccccc2[nH]1)c1ccccc1C#N [Compound I-49] | 42 nM | – |
| CC/C(=C(/c1ccc(/C=C/C(=O)O)cc1)c1cc2ccccc2[nH]1)c1ccccc1C [Compound I-50] | 33 nM | – |
| CC/C(=C(/c1ccc(/C=C/C(=O)O)cc1)c1cc2ccccc2[nH]1)c1ccccc1Cl [Compound I-51] | 9.24 nM | – |
| CC/C(=C(/c1ccc(/C=C/C(=O)O)cc1)c1cc2ccccc2[nH]1)c1cccc(F)c1C#N [Compound I-52] | 40 nM | – |
| CC/C(=C(/c1ccc(/C=C/C(=O)O)cc1)c1[nH]c2ccccc2c1C#N)c1ccc(Cl)cc1Cl [Compound I-53] | 4.35 nM | – |
| CC/C(=C(/c1ccc(/C=C/C(=O)O)cc1)c1[nH]c2ccccc2c1C)c1cccc(C)c1 [Compound I-54] | 23 nM | – |
| CC/C(=C(/c1ccc(/C=C/C(=O)O)cc1)c1[nH]c2ccccc2c1Cl)c1ccc(Cl)nc1C#N [Compound I-55] | 2.42 nM | – |
| CC/C(=C(/c1ccc(/C=C/C(=O)O)cc1)c1[nH]c2ccccc2c1Cl)c1csc(C)c1 [Compound I-56] | 35 nM | – |
| CC/C(=C(\c1cc2ccccc2[nH]1)c1c(F)cc(/C=C/C(=O)O)cc1F)c1ccc(F)cc1Cl [Compound I-57] | – | IC50 (MCF-7 cells; [6]): 32 nM |
| CC/C(=C(/c1ccc(OCCN2CC(CF)C2)cc1)c1cc2ccccc2[nH]1)c1ccc(F)cc1Cl [II-1] | – | IC50 (MCF-7 cells; [6]): 4.57 nM |
| C[C@]12CC[C@@H]3c4ccc(O)cc4C[C@@H](CCCCCCCCC[S+]([O-])CCCC(F)(F)C(F)(F)F)[C@H]3[C@@H]1CC[C@@H]2O (stereo partly shown) [fulvestrant] | – | oral bioavailability [4]: zero; breast cancer patients showing clinical response (breast cancer): about 50% |

The next lines start with results.

| IC50 (MCF-7 cells; [5]) | Structure (SMILES) | other results |
| --- | --- | --- |
| 7.75 nM | CC/C(=C(/c1ccc(OCCN2CC(CF)C2)cc1)c1cc2ccc(F)cc2[nH]1)c1ccc(F)cc1Cl [II-2] | – |
| 6.77 nM | CC/C(=C(/c1ccc(OCCN2CC(CF)C2)cc1)c1cc2cc(F)ccc2[nH]1)c1ccc(F)cc1Cl [II-3] | – |
| 6.86 nM | CC/C(=C(\c1cc2ccccc2[nH]1)c1c(F)cc(OCCN2CC(CF)C2)cc1F)c1ccc(F)cc1Cl [II-4] | – |
| 7.23 nM | CC/C(=C(/c1ccc(OCCN2CC(CF)C2)cc1)c1[nH]c2ccccc2c1Cl)c1ccc(F)cc1Cl [II-5] | – |
| 2.46 nM | CC/C(=C(/c1ccc(OCCN2CC(CF)C2)cc1)c1cc2ccccc2[nH]1)c1ccccc1Cl [II-6] | – |
| 2.61 nM | CC/C(=C(/c1ccc(OCCN2CC(CF)C2)cc1)c1cc2ccccc2[nH]1)c1ccccc1C#N [II-7] | – |
| 5 nM | CC/C(=C(/c1ccc(OCCN2CC(CC#N)C2)cc1)c1[nH]c2ccccc2c1Cl)c1ccc(F)cc1Cl [II-8] | – |
| 51 nM | CC/C(=C(/c1ccc(OCCN2CC(CC#N)C2)cc1)c1cc2ccccc2[nH]1)c1ccc(Cl)cc1C(F)(F)F [II-9] | – |
| 3.92 nM | CC/C(=C(/c1ccc(OCCN2CC(CC#N)C2)cc1)c1cc2ccccc2[nH]1)c1ccccc1Cl [II-10] | – |
| 7.43 nM | CC/C(=C(/c1ccc(OCCN2CC(CC#N)C2)cc1)c1cc2ccccc2[nH]1)c1ccccc1C#N [II-11] | – |
| 1.56 nM | CC/C(=C(/c1ccc(OCCN2CC(CC#N)C2)cc1)c1[nH]c2ccccc2c1Cl)c1ccc(Cl)cc1C#N [II-12] | – |
